Results taken from USRE39591E1, “6-O-substituted ketolides having antibacterial activity” (Abbott Laboratories, priority 1996, dated 2007).
In brackets after ≈: the same amount, converted by molar mass.

Test system: up to 32 different microorganisms
Assay: in vitro antibacterial activity (MIC), agar dilution on Brain Heart Infusion (BHI) agar with Steers replicator
Format: cell-based
Conditions: unit assumed
Method: Representative compounds of the present invention were assayed in vitro for antibacterial activity as follows: Twelve petri dishes containing successive aqueous dilutions of the test compound mixed with 10 mL of sterilized Brain Heart Infusion (BHI) agar (Difco 0148-01-5) were prepared. Each plate was inoculated with 1:100 (or 1:10 for slow-growing strains, such as Micrococcus and Streptococcus) dilutions of up to 32 different microorganisms, using a Steers replicator block. The inoculated plates were incubated at 35°-37° C. for 20 to 24 hours. In addition, a control plate, using BHI agar containing no test compound, was prepared and incubated at the beginning and end of each test.
An additional plate containing a compound having known susceptibility patterns for the organisms being tested and belonging to the same antibiotic class as the test compound was also prepared and incubated as a further control, as well as to provide test-to-test comparability. Erythromycin A was used for this purpose.
After incubation, each plate was visually inspected. The minimum inhibitory concentration (MIC) was defined as the lowest concentration of drug yielding no growth, a slight haze, or sparsely isolated colonies on the inoculum spot as compared to the growth control.

[1] = Candida albicans CCH 442 (code TT)
[2] = Enterococcus faecism ATCC 8043 (code II)
[3] = Escherichia coli DC-2 (code SS)
[4] = Escherichia coli JUHL (code QQ)
[5] = Micrococcus luteus ATCC 4698 (code PP)
[6] = Micrococcus luteus ATCC 9341 (code OO)
[7] = Mycobacterium smegmatis ATCC 114 (code UU)
[8] = Nocardia Asteroides ATCC9970 (code VV)
[9] = Staphylococcus aureus 1775 (code GG)
[10] = Staphylococcus aureus A5177 (code BB)
[11] = Staphylococcus aureus A-5278 (code CC)
[12] = Staphylococcus aureus ATCC 6538P (code AA)
[13] = Staphylococcus aureus CMX 553 (code FF)
[14] = Staphylococcus aureus CMX 642A (code DD)
[15] = Staphylococcus aureus NCTC10649M (code EE)
[16] = Staphylococcus epidermidis 3519 (code HH)
[17] = Streptococcus agalactiae CMX 508 (code KK)
[18] = Streptococcus bovis A-5169 (code JJ)
[19] = Streptococcus pyogenes 930 (code MM)
[20] = Streptococcus pyogenes EES61 (code LL)
[21] = Streptococcus pyogenes PIU 2548 (code NN)

CCC1OC(=O)C(C)C(=O)C(C)C(OC2OC(C)CC(N(C)C)C2O)C(C)(OCC=Cc2ccc3nc(C)ccc3c2)CC(C)C(=O)C(C)C2NC(=O)OC12C (centres unmarked) [Example 197, R is —CH2CH═CH-(2-methyl-6-quinolyl)]
MIC [1]: > 100 µg/mL | MIC [2]: 0.05 µg/mL (≈ 0.0641 µM) | MIC [3]: 100 µg/mL (≈ 128 µM) | MIC [4]: 100 µg/mL (≈ 128 µM) | MIC (Escherichia coli SS (code RR)): 0.2 µg/mL (≈ 0.256 µM) | MIC [5]: 0.2 µg/mL (≈ 0.256 µM) | MIC [6]: 0.02 µg/mL (≈ 0.0256 µM) | MIC [7]: 1.56 µg/mL (≈ 2 µM) | MIC [8]: 0.1 µg/mL (≈ 0.128 µM) | MIC [9]: > 100 µg/mL | MIC [10]: 0.1 µg/mL (≈ 0.128 µM) | MIC [11]: > 100 µg/mL | MIC [12]: 0.1 µg/mL (≈ 0.128 µM) | MIC [13]: 0.2 µg/mL (≈ 0.256 µM) | MIC [14]: 0.1 µg/mL (≈ 0.128 µM) | MIC [15]: 0.2 µg/mL (≈ 0.256 µM) | MIC [16]: 0.1 µg/mL (≈ 0.128 µM) | MIC [17]: ≤ 0.005 µg/mL | MIC [18]: ≤ 0.005 µg/mL | MIC [19]: 100 µg/mL (≈ 128 µM) | MIC [20]: ≤ 0.005 µg/mL | MIC [21]: 0.1 µg/mL (≈ 0.128 µM)

CCC1OC(=O)C(C)C(=O)C(C)C(OC2OC(C)CC(N(C)C)C2OC(C)=O)C(C)(OCC=Cc2cnc3ccccc3c2)CC(C)C(=O)C(C)C2NC(=O)OC12C (centres unmarked) [Example 198, Compound of Formula (III): L is CO, T is NH, R^c is acetyl; R is —CH2CH═CH-(3-quinolyl)]
MIC [1]: > 100 µg/mL | MIC [2]: 0.02 µg/mL | MIC [3]: 50 µg/mL | MIC [4]: 50 µg/mL | MIC (Escherichia coli SS (code RR)): 0.1 µg/mL | MIC [5]: 0.1 µg/mL | MIC [6]: ≤ 0.005 µg/mL | MIC [7]: 0.39 µg/mL | MIC [8]: 0.02 µg/mL | MIC [9]: > 100 µg/mL | MIC [10]: 0.05 µg/mL | MIC [11]: > 100 µg/mL | MIC [12]: 0.05 µg/mL | MIC [13]: 0.02 µg/mL | MIC [14]: 0.05 µg/mL | MIC [15]: 0.05 µg/mL | MIC [16]: 0.1 µg/mL | MIC [17]: ≤ 0.005 µg/mL | MIC [18]: ≤ 0.005 µg/mL | MIC [19]: 0.39 µg/mL | MIC [20]: ≤ 0.005 µg/mL | MIC [21]: 0.1 µg/mL

CCC1OC(=O)C(C)C(=O)C(C)C(OC2OC(C)CC(N(C)C)C2O)C(C)(OCC=Cc2cc3nccnc3cc2[N+](=O)[O-])CC(C)C(=O)C(C)C2NC(=O)OC12C (centres unmarked) [Example 200, R is —CH2CH═CH-(7-nitro-6-quinoxalinyl)]
MIC (organism code AA): 0.1 µg/mL (≈ 0.123 µM) | MIC (organism code BB): 0.1 µg/mL (≈ 0.123 µM) | MIC (organism code CC): > 100 µg/mL | MIC (organism code DD): 0.1 µg/mL (≈ 0.123 µM) | MIC (organism code EE): 0.1 µg/mL (≈ 0.123 µM) | MIC (organism code FF): 0.1 µg/mL (≈ 0.123 µM) | MIC (organism code GG): > 100 µg/mL | MIC (organism code HH): 0.1 µg/mL (≈ 0.123 µM) | MIC (organism code II): 0.02 µg/mL (≈ 0.0246 µM) | MIC (organism code JJ): 0.01 µg/mL (≈ 0.0123 µM) | MIC (organism code KK): 0.02 µg/mL (≈ 0.0246 µM) | MIC (organism code MM): 50 µg/mL (≈ 61.6 µM) | MIC (organism code NN): 0.2 µg/mL (≈ 0.246 µM) | MIC (organism code OO): 0.01 µg/mL (≈ 0.0123 µM) | MIC (organism code PP): 0.2 µg/mL (≈ 0.246 µM) | MIC (organism code QQ): 50 µg/mL (≈ 61.6 µM) | MIC (organism code RR): 0.39 µg/mL (≈ 0.48 µM) | MIC (organism code SS): 12.5 µg/mL (≈ 15.4 µM) | MIC (organism code TT): > 100 µg/mL | MIC (organism code UU): 0.78 µg/mL (≈ 0.961 µM) | MIC (organism code VV): 0.1 µg/mL (≈ 0.123 µM) | MIC (organism code WW): 2 µg/mL (≈ 2.46 µM) | MIC (organism code XX): ≤ 0.004 µg/mL | MIC (organism code YY): ≤ 0.004 µg/mL | MIC (organism code ZZ): > 128 µg/mL | MIC (organism code ZZA): 0.25 µg/mL (≈ 0.308 µM)

CCC1OC(=O)C(C)C(=O)C(C)C(OC2OC(C)CC(N(C)C)C2O)C(C)(OCC=Cc2cnc3ccc(N)cc3c2)CC(C)C(=O)C(C)C2NC(=O)OC12C (centres unmarked) [Example 201, R is —CH2CH═CH-(6-amino-3-quinolyl)]
MIC (organism code AA): 0.1 µg/mL (≈ 0.128 µM) | MIC (organism code BB): 0.1 µg/mL (≈ 0.128 µM) | MIC (organism code CC): > 100 µg/mL | MIC (organism code DD): 0.1 µg/mL (≈ 0.128 µM) | MIC (organism code EE): 0.1 µg/mL (≈ 0.128 µM) | MIC (organism code FF): 0.1 µg/mL (≈ 0.128 µM) | MIC (organism code GG): > 100 µg/mL | MIC (organism code HH): 0.01 µg/mL (≈ 0.0128 µM) | MIC (organism code II): 0.01 µg/mL (≈ 0.0128 µM) | MIC (organism code JJ): 0.01 µg/mL (≈ 0.0128 µM) | MIC (organism code KK): 0.01 µg/mL (≈ 0.0128 µM) | MIC (organism code LL): 0.01 µg/mL (≈ 0.0128 µM) | MIC (organism code MM): 1.56 µg/mL (≈ 2 µM) | MIC (organism code NN): 0.2 µg/mL (≈ 0.256 µM) | MIC (organism code OO): 0.05 µg/mL (≈ 0.064 µM) | MIC (organism code PP): 0.1 µg/mL (≈ 0.128 µM) | MIC (organism code QQ): 50 µg/mL (≈ 64 µM) | MIC (organism code RR): 0.1 µg/mL (≈ 0.128 µM) | MIC (organism code SS): 50 µg/mL (≈ 64 µM) | MIC (organism code TT): > 100 µg/mL | MIC (organism code UU): 6.2 µg/mL (≈ 7.94 µM) | MIC (organism code VV): 0.2 µg/mL (≈ 0.256 µM) | MIC (organism code WW): 2 µg/mL (≈ 2.56 µM) | MIC (organism code XX): 0.03 µg/mL (≈ 0.0384 µM) | MIC (organism code YY): 0.03 µg/mL (≈ 0.0384 µM) | MIC (organism code ZZ): 16 µg/mL (≈ 20.5 µM) | MIC (organism code ZZA): 1 µg/mL (≈ 1.28 µM)

CCC1OC(=O)C(C)C(=O)C(C)C(OC2OC(C)CC(N(C)C)C2O)C(C)(OCC=Cc2cnc3ncccc3c2)CC(C)C(=O)C(C)C2NC(=O)OC12C (centres unmarked) [Example 202, R is —CH2CH═CH-(1,8-naphthyridin-3-yl)]
MIC (organism code XX): 0.03 µg/mL (≈ 0.0391 µM) | MIC (organism code YY): 0.03 µg/mL (≈ 0.0391 µM) | MIC (organism code ZZ): 32 µg/mL (≈ 41.7 µM) | MIC (organism code ZZA): 2 µg/mL (≈ 2.61 µM)
